Assay results published in patent US10390532B2, “Insecticide composition including thiamethoxam and a synergistic agent” (priority 2015, dated 2019).
Where two headings read alike, the source gives them in different places.

Experiments:
Format in all cases: cell-based, Periplaneta americana
[1] = system: cockroach Dorsal Unpaired Median (DUM) neurons; details: for origin of the intracellular calcium rise: with caffeine, omega-conotoxin, pirenzepine
[2] = system: cockroach Dorsal Unpaired Median (DUM) neurons; assay: Whole-cell patch-clamp, current-clamp: DUM neuron spontaneous electrical activity; details: 10^-8 M
Protocol: (§1) Experiments were carried out on cockroach Dorsal Unpaired Median (DUM) neurons. Cockroach neuronal preparations are commonly used as biomedical models for vertebrates and invertebrates and DUM neurons are, furthermore, electrophysiologically and pharmacologically well characterized since most of the biophysical and pharmacological properties of ionic currents and receptors underlying and modulating their spontaneous action potentials have been established by using the well-known patch-clamp technique.
(§2) Adult male cockroaches, Periplaneta americana (see FIG. 1), are taken from our laboratory colonies, which are maintained under standard conditions (29° C., photoperiod of 12 h light/12 h dark). Animals are immobilized dorsal-side up on a dissection dish. The dorsal cuticle, gut and some dorso-longitudinal muscles are removed to allow access to the ventral nerve cord. The abdominal nerve cord and its terminal abdominal ganglion (TAG), carefully dissected under a binocular microscope, are placed in normal saline. Animal care and handling procedures are in accordance with French institutional and national health guidelines. […]
(§3) Electrical activity and neonicotinoïd-induced inward currents are recorded using the patch clamp technique in the whole-cell recording configuration under current-clamp and voltage-clamp mode, respectively. […] Signals are recorded with an Axopatch 200A amplifier. […]

[3] = system: cockroach Dorsal Unpaired Median (DUM) neurons; assay: Whole-cell patch-clamp, voltage-clamp: thiamethoxam-induced inward current in DUM neurons; details: holding potential -50 mV
Protocol: as §1, §2, §3

[4] = system: cockroach Dorsal Unpaired Median (DUM) neurons; assay: Voltage-clamp thiamethoxam-induced current in DUM neurons after pretreatment with acetylcholine
Protocol: Electrical activity and neonicotinoïd-induced inward currents are recorded using the patch clamp technique in the whole-cell recording configuration under current-clamp and voltage-clamp mode, respectively. Patch-clamp electrodes are pulled from borosilicate glass capillary tubes (GC150T-10) using a P-97 model puller. Patch pipettes have resistances ranging from 1 to 1.2 MΩ when filled with internal pipette solution. The liquid junction potential between extracellular and intracellular solutions is always corrected before the formation of a giga Ohm seal (>3GΩ). Signals are recorded with an Axopatch 200A amplifier. […] Under voltage-clamp conditions, DUM neuron somata are voltage-clamped at a steady state holding potential of −50 mV to measure the effects of thiamethoxam applied alone and after pretreatment with IR3535® (10^−8 M). Experiments are carried out at room temperature.
Acetylcholine at a concentration of 10^−3M has been applied to DUM neurons during one second, three minutes before testing thiamethoxam at 10^−7M, 10^−6M and 10^−5M on DUM neurons under the same protocol as example 3.

CCN(CC)C(=O)c1cccc(C)c1 [DEET, N,N-diethyl-3-methylbenzamide]
effect on intracellular calcium concentration ([1]; DEET at concentrations higher than 10^-7 M): an important decrease of the intracellular calcium concentration
ratio of emitted fluorescence (340 nm/380 nm) ([1]; DEET between 3.10-8 M and 3.10-7 M): above 0.6
concentration at which the intracellular calcium elevation reaches a maximum ([1]; DEET, DUM neurons): 10^−7 M
maximum value of ratio of emitted fluorescence (340 nm/380 nm) ([1]; DEET, maximum at 10^-7 M): 0.7

CCCCN(CCC(=O)OCC)C(C)=O [IR3535®, 3-[N-Butyl-N-acetyl]-aminopropionic acid, ethyl ester]
lower concentration which produces a significant elevation of intracellular calcium concentration ([1]; DUM neurons): 10^−8 M
concentration at which the zone I intracellular calcium increase reaches a maximum ([1]; DUM neurons, zone I): 10^−8 M
concentration producing the maximum effect on intracellular calcium (zone III) ([1]; DUM neurons, zone III): 3.10^−5 M
origin of the intracellular calcium rise ([1]; IR3535 at 10^-8 M): results from extracellular calcium through plasma membrane voltage-dependent calcium channels via M1/M3 mAChR sub-type modulation
origin of the intracellular calcium rise ([1]; higher concentrations of IR3535 (10^-5 M)): both extracellular calcium and calcium released from internal stores are involved
effect on membrane potential and spontaneous action potential discharge frequency [2]: induces a significant membrane depolarization associated with an increase of the spontaneous action potential discharge frequency

CN1COCN(Cc2cnc(Cl)s2)/C1=N\[N+](=O)[O-] [thiamethoxam]
mean inward current amplitude relative to thiamethoxam applied alone ([3]; thiamethoxam 10^-6 M after pretreatment with IR3535 10^-8 M): about 6 fold
induced inward current amplitude ([3]; thiamethoxam 10^-6 M alone, n=3-4): induces an inward current with small amplitudes
current amplitude, rank among tested concentrations ([4]; thiamethoxam 10^-6 M after acetylcholine 10^-3 M): lowest value
induced current ([4]; thiamethoxam 10^-7, 10^-6, 10^-5 M after acetylcholine 10^-3 M (1 s, 3 min before)): induces a current
current amplitude, rank among tested concentrations ([4]; thiamethoxam 10^-7 M after acetylcholine 10^-3 M): highest value
induced current ([4]; thiamethoxam alone, no acetylcholine pretreatment): no current has been recorded
